ChEMBL document CHEMBL1121370, “Synthesis and biological activity of a ketomethylene analogue of a tripeptide inhibitor of angiotensin converting enzyme” (J Med Chem, 1980)

How the values were obtained:
[1] = Enzyme kinetic inhibition constant against tripeptide, Hip-His-Leu as substrate
Cavia porcellus = species: Cavia porcellus; experiment: Compound is evaluated for the inhibition of guinea pig ileum contraction caused by 25 ng/mL angiotensin I; type: functional, organism-based
[2] = Enzyme kinetic inhibition constant against tripeptide, Angiotensin I as substrate in a competition inhibition assay

Ki [1]	IC50 (Cavia porcellus)	Ki [2]	SMILES
106 nM	0.5 µg/mL	870 nM	O=C(N[C@@H](Cc1ccccc1)C(=O)CCC(=O)N1CCC[C@H]1C(=O)O)c1ccccc1
71.5 nM	0.05 µg/mL		C[C@H](CS)C(=O)N1CCC[C@H]1C(=O)O [CAPTOPRIL]
